In the CheMixHub ionic liquid set:

Experiment: xn = mol fraction of the nth substance listed

CCOC(C)=O + CCO + CCCC[n+]1ccn(C)c1.O=S(=O)([N-]S(=O)(=O)C(F)(F)F)C(F)(F)F
298.15 K, 101 kPa
Conditions	viscosity [mPa·s]
x2 = 0.0086, x1 = 0.9023	0.967
x2 = 0.0173, x1 = 0.804	1.818
x2 = 0.0216, x1 = 0.8938	0.982
x2 = 0.026, x1 = 0.7051	3.29
x2 = 0.0299, x1 = 0.9014	0.806
x2 = 0.035, x1 = 0.6029	5.36
x2 = 0.0405, x1 = 0.8009	1.644
x2 = 0.0422, x1 = 0.521	7.65
x2 = 0.045, x1 = 0.8887	0.803
x2 = 0.0534, x1 = 0.3936	12.87
x2 = 0.0549, x1 = 0.8911	0.714
x2 = 0.0571, x1 = 0.9051	0.658
x2 = 0.0615, x1 = 0.7971	1.44
x2 = 0.0622, x1 = 0.2942	17.63
x2 = 0.0632, x1 = 0.6895	2.89
x2 = 0.0688, x1 = 0.2189	22.5
x2 = 0.0754, x1 = 0.1444	28.1
x2 = 0.0777, x1 = 0.6181	4.09
x2 = 0.0778, x1 = 0.1168	30.1
x2 = 0.08, x1 = 0.8998	0.526
x2 = 0.0815, x1 = 0.0753	34.1
x2 = 0.0882, x1 = 0.7818	1.308
x2 = 0.0925, x1 = 0.6947	2.35
x2 = 0.0953, x1 = 0.8644	0.656
x2 = 0.0984, x1 = 0.5164	6.16
x2 = 0.0997, x1 = 0.8023	1.05
x2 = 0.1177, x1 = 0.6116	3.32
x2 = 0.1191, x1 = 0.802	0.89
x2 = 0.1234, x1 = 0.3937	9.59
x2 = 0.125, x1 = 0.6908	1.976
x2 = 0.1404, x1 = 0.3101	13.03
x2 = 0.1414, x1 = 0.7989	0.789
x2 = 0.1455, x1 = 0.5201	4.81
x2 = 0.1477, x1 = 0.707	1.521
x2 = 0.1591, x1 = 0.8229	0.523
x2 = 0.1604, x1 = 0.6032	2.8
x2 = 0.1639, x1 = 0.1949	18.29
x2 = 0.1658, x1 = 0.7923	0.681
x2 = 0.1735, x1 = 0.1475	21.3
x2 = 0.183, x1 = 0.6956	1.289
x2 = 0.1841, x1 = 0.0957	24.4
x2 = 0.1843, x1 = 0.392	7.6
x2 = 0.1948, x1 = 0.043	28.1
x2 = 0.1978, x1 = 0.5106	3.97
x2 = 0.1995, x1 = 0.6042	2.19
x2 = 0.2059, x1 = 0.7708	0.557
x2 = 0.213, x1 = 0.2974	10.46
x2 = 0.2132, x1 = 0.6967	1.026
x2 = 0.2314, x1 = 0.6152	1.684
x2 = 0.2434, x1 = 0.1969	14.03
x2 = 0.2448, x1 = 0.6933	0.829
x2 = 0.2449, x1 = 0.394	5.82
x2 = 0.247, x1 = 0.51	3.05
x2 = 0.2609, x1 = 0.1391	16.65
x2 = 0.2729, x1 = 0.0996	18.5
x2 = 0.2797, x1 = 0.6021	1.324
x2 = 0.2857, x1 = 0.2933	8.02
x2 = 0.2868, x1 = 0.0538	21
x2 = 0.2924, x1 = 0.6745	0.658
x2 = 0.2972, x1 = 0.5057	2.33
x2 = 0.3062, x1 = 0.3928	4.4
x2 = 0.3201, x1 = 0.5989	1.006
x2 = 0.3236, x1 = 0.1993	10.53
x2 = 0.3448, x1 = 0.147	12.41
x2 = 0.3553, x1 = 0.4946	1.727
x2 = 0.356, x1 = 0.294	5.97
x2 = 0.3662, x1 = 0.094	14.33
x2 = 0.3681, x1 = 0.3878	3.28
x2 = 0.3736, x1 = 0.5842	0.736
x2 = 0.3833, x1 = 0.0516	16.14
x2 = 0.3974, x1 = 0.502	1.235
x2 = 0.4042, x1 = 0.1983	7.96
x2 = 0.4237, x1 = 0.3973	2.32
x2 = 0.4281, x1 = 0.288	4.46
x2 = 0.4291, x1 = 0.149	9.07
x2 = 0.4547, x1 = 0.0982	10.36
x2 = 0.4684, x1 = 0.4786	0.869
x2 = 0.4784, x1 = 0.0511	11.87
x2 = 0.4799, x1 = 0.3986	1.585
x2 = 0.4832, x1 = 0.1963	5.71
x2 = 0.508, x1 = 0.155	6.45
x2 = 0.5162, x1 = 0.2658	3.24
x2 = 0.5407, x1 = 0.1007	7.42
x2 = 0.5473, x1 = 0.3908	1.023
x2 = 0.5621, x1 = 0.2957	2.03
x2 = 0.5657, x1 = 0.1954	3.92
x2 = 0.574, x1 = 0.0452	8.7
x2 = 0.598, x1 = 0.1495	4.39
x2 = 0.6293, x1 = 0.2115	2.49
x2 = 0.6333, x1 = 0.0992	5.1
x2 = 0.6413, x1 = 0.2861	1.252
x2 = 0.6634, x1 = 0.0564	5.74
x2 = 0.6743, x1 = 0.1551	2.84
x2 = 0.7038, x1 = 0.1181	3.11
x2 = 0.7282, x1 = 0.1894	1.533
x2 = 0.7476, x1 = 0.0632	3.67
x2 = 0.7565, x1 = 0.1579	1.636
x2 = 0.8052, x1 = 0.1037	1.848
x2 = 0.8459, x1 = 0.0584	2.09

CCCC[n+]1ccn(C)c1.F[P-](F)(F)(F)(F)F + CCOC(C)=O
298.15 K
Conditions	electrical conductivity, x2 = 0.2746 [S/m]	electrical conductivity, x2 = 0.4156 [S/m]	electrical conductivity, x2 = 0.7532 [S/m]	electrical conductivity, x2 = 0.8821 [S/m]	viscosity, x2 = 0.2746 [mPa·s]	viscosity, x2 = 0.4156 [mPa·s]	viscosity, x2 = 0.6524 [mPa·s]	viscosity, x2 = 0.7532 [mPa·s]	viscosity, x2 = 0.8821 [mPa·s]
101 kPa	0.452	0.67	1.12	0.726	60.7	27.8	–	3.33	1.43
101.3 kPa	–	–	–	–	–	–	6.22	–	–

CC(=O)c1ccccc1 + CCOS(=O)(=O)[O-].CC[n+]1ccn(C)c1
100 kPa
Conditions	viscosity [mPa·s]
293.15 K, x1 = 0.7973	4.3
303.15 K, x1 = 0.2	27.1
303.15 K, x1 = 0.4002	16.4
303.15 K, x1 = 0.7973	5.3
303.15 K, x1 = 0.9502	2.48
303.15 K, x1 = 1	1.65
313.15 K, x1 = 0.6921	5.6
313.15 K, x1 = 0.8999	3.3
313.15 K, x1 = 0.9502	2
313.15 K, x1 = 1	1.37
323.15 K, x1 = 0.3008	10.7
323.15 K, x1 = 0.5999	5.8
323.15 K, x1 = 0.8999	1.94
323.15 K, x1 = 1	1.17
333.15 K, x1 = 0.0505	16.2
333.15 K, x1 = 0.0997	14.2

CC[n+]1ccn(C)c1.O=S(=O)([O-])O + CC[C@H](C)[C@H](N)C(=O)O + O
viscosity [mPa·s], 100 kPa
Conditions	293.15 K	298.15 K	303.15 K	308.15 K	313.15 K
x2 = 0, x1 = 0.0005421	1.046	0.929	0.824	0.75	0.678
x2 = 0, x1 = 0.0009056	1.068	0.949	0.843	0.759	0.684
x2 = 0, x1 = 0.001263	1.073	0.966	0.866	0.78	0.697
x2 = 0.0004219, x1 = 0.0009052	1.093	0.961	0.853	0.769	0.693
x2 = 0.0004673, x1 = 0.001263	1.101	0.979	0.878	0.79	0.708
x2 = 0.0005036, x1 = 0.0005418	1.075	0.943	0.837	0.762	0.69
x2 = 0.0007653, x1 = 0.0009049	1.113	0.97	0.862	0.777	0.701
x2 = 0.0008312, x1 = 0.0005417	1.094	0.953	0.845	0.77	0.697
x2 = 0.000832, x1 = 0.001262	1.122	0.989	0.887	0.799	0.716
x2 = 0.0009488, x1 = 0.0005416	1.1	0.956	0.848	0.773	0.7
x2 = 0.00107, x1 = 0.0009046	1.131	0.979	0.87	0.785	0.708
x2 = 0.001216, x1 = 0.001262	1.145	0.999	0.897	0.808	0.724
x2 = 0.001364, x1 = 0.001262	1.154	1.003	0.901	0.812	0.728
x2 = 0.001515, x1 = 0.0009042	1.157	0.991	0.881	0.795	0.717
x2 = 0.001572, x1 = 0.0005413	1.136	0.973	0.864	0.789	0.714
x2 = 0.001693, x1 = 0.0005412	1.143	0.977	0.867	0.792	0.717
x2 = 0.001746, x1 = 0.001261	1.176	1.013	0.91	0.821	0.736
x2 = 0.001796, x1 = 0.000904	1.174	0.999	0.888	0.802	0.724
x2 = 0.002205, x1 = 0.0009036	1.198	1.01	0.898	0.812	0.733
x2 = 0.002228, x1 = 0.0005409	1.174	0.991	0.881	0.805	0.729
x2 = 0.002256, x1 = 0.001261	1.206	1.027	0.923	0.833	0.747
x2 = 0.002728, x1 = 0.00126	1.23	1.04	0.935	0.844	0.758

CCCCCCCC/C=C\CCCCCCCC(=O)O + CC[N+](CC)(CC)CC.[Cl-]
100 kPa, x2 = 0.25
Conditions	viscosity [mPa·s]
293.1 K	268.5
313.2 K	95.4
323.2 K	61.9

CC#N + CC[NH3+].O=[N+]([O-])[O-]
Conditions	viscosity [mPa·s]
308.19 K, 100 kPa, x2 = 0	0.302

CC[NH2+]CC.O=[N+]([O-])[O-] + CC[NH3+].O=[N+]([O-])[O-]
101 kPa, frequency 0.00293 MHz
Conditions	electrical conductivity [S/m]
293.15 K, x1 = 0.0998	1.73
293.15 K, x1 = 0.3501	1.46
308.15 K, x1 = 0.0499	2.78
313.15 K, x1 = 0.1999	2.79
313.15 K, x1 = 0.3501	2.63
318.15 K, x1 = 0.0998	3.44
318.15 K, x1 = 0.1499	3.39
323.15 K, x1 = 0.1499	3.79
323.15 K, x1 = 0.1999	3.53

101 kPa
Conditions	viscosity [mPa·s]
293.15 K, x1 = 0.0998	43.2
298.15 K, x1 = 0.2501	38.3
308.15 K, x1 = 0.0499	27
313.15 K, x1 = 0.1999	25.1
313.15 K, x1 = 0.3501	24.9
318.15 K, x1 = 0.0998	19.7
318.15 K, x1 = 0.2998	20.3
323.15 K, x1 = 0.1499	17.9
323.15 K, x1 = 0.1999	19.1
328.15 K, x1 = 0.0998	15.3
338.15 K, x1 = 0.2998	12.2
353.15 K, x1 = 0.0998	8.96
353.15 K, x1 = 0.1499	8.99
353.15 K, x1 = 0.1999	9.7
353.15 K, x1 = 0.3501	9.47
